# Laboratory results published in US11591631B2, “Glucose monitoring method and glucose sensor” (TOYOBO CO., LTD., priority 2017, dated 2023).
# Like-named read-outs stand apart in the source and are kept apart here.
# Assays:
# [1] = test system: FADGDH GDH-2, SEQ ID No. 2 (SEQ ID No. 1 of JP2013-116102A); assay: Michaelis constant of GDH-2 in aqueous system (DCPIP/PMS, Lineweaver-Burk plot); assay type: biochemical; conditions: pH 6.5, 37° C., Lineweaver-Burk at 30, 50, 100, 200 mM, read-out: Michaelis constant (Km) for glucose
# Method: (§1) In the present invention, the activity of glucose dehydrogenase is defined using, as 1 unit (U), the amount of enzyme that reduces 1 micromole of DCPIP per minute in the presence of a substrate according to a method using a reagent having the following formulation.
# (§2) 50 mM PIPES buffer (pH: 6.5; containing 0.1% TritonX-100)
# (§3) 2 mM 2,5-dichlorophenolindophenol (DCPIP) solution
# (§4) First, 3 ml of reaction reagent is pre-warmed at 37° C. for 5 minutes. 0.1 ml of GDH solution is added thereto, and the resulting mixture is gently mixed. Then, the change in absorbance at 600 nm is record for 5 minutes by a spectrophotometer adjusted at 37° C. with water as a control, and the change in absorbance per minute (ΔODTEST) is measured from the straight line portion. In a blind test, a solvent that dissolves GDH is added to the reagent mixture, instead of the GDH solution, and the change in absorbance per minute (ΔODBLANK) is similarly measured. From these values, GDH activity is determined according to the following formula. […] Activity (U/ml)={−(ΔODTEST−ΔODBLANK)×3.0×dilution magnification}/{16.3×0.1×1.0} […]
# [2] = test system: FADGDH GDH-3, SEQ ID No. 3 (SEQ ID No. 1 of JP4649993B); assay: Michaelis constant of GDH-3 in aqueous system (DCPIP/PMS, Lineweaver-Burk plot); assay type: biochemical, Mucor prainii; conditions: pH 6.5, 37° C., Lineweaver-Burk at 30, 50, 100, 200 mM, read-out: Michaelis constant (Km) for glucose
# Method: as §1, §2, §3, §4
# [3] = test system: FADGDH GDH-4, SEQ ID No. 4 (SEQ ID No. 1 of JP2015-146773A); assay: Michaelis constant of GDH-4 in aqueous system (DCPIP/PMS, Lineweaver-Burk plot); assay type: biochemical; conditions: pH 6.5, 37° C.
# Method: as §1, §2, §3, §4
# [4] = test system: modified FADGDH GDH-5, random mutant of FADGDH of SEQ ID No. 5; assay: Michaelis constant of GDH-5 in aqueous system (DCPIP/PMS, Lineweaver-Burk plot); assay type: biochemical; conditions: pH 6.5, 37° C., Lineweaver-Burk at 30, 50, 100, 200 mM, read-out: Michaelis constant (Km) for glucose
# Method: as §1, §2, §3, §4
# [5] = test system: modified FADGDH GDH-6, random mutant of FADGDH of SEQ ID No. 5; assay: Michaelis constant of GDH-6 in aqueous system (DCPIP/PMS, Lineweaver-Burk plot); assay type: biochemical; conditions: pH 6.5, 37° C., Lineweaver-Burk at 30, 50, 100, 200 mM, read-out: Michaelis constant (Km) for glucose
# Method: as §1, §2, §3, §4
# [6] = test system: FADGDH enzymes of Table 1 (GDH-1 to GDH-4); assay: Km for D-glucose of the enzymes listed in Table 1; assay type: biochemical; conditions: read-out: Km for D-glucose; range over the enzymes listed in Table 1
# Method: as §1
# First, 3 ml of reaction reagent is pre-warmed at 37° C. for 5 minutes. 0.1 ml of GDH solution is added thereto, and the resulting mixture is gently mixed. Then, the change in absorbance at 600 nm is record for 5 minutes by a spectrophotometer adjusted at 37° C. with water as a control, and the change in absorbance per minute (ΔODTEST) is measured from the straight line portion. In a blind test, a solvent that dissolves GDH is added to the reagent mixture, instead of the GDH solution, and the change in absorbance per minute (ΔODBLANK) is similarly measured. From these values, GDH activity is determined according to the following formula. […] Activity (U/ml)={−(ΔODTEST−ΔODBLANK)×3.0×dilution magnification}/{16.3×0.1×1.0}
# GDH-3 is obtained by genetically engineering and expressing GDH having an amino acid sequence of SEQ ID No. 3 (the amino acid sequence represented by SEQ ID No. 1 of JP4649993B) using the Cryptococcus sp. S-2 D11 strain (FERM BP-11482) described in JP5588578B. […]
# [7] = substrate: OC1OC[C@@H](O)[C@H](O)[C@H]1O; assay: purified protein, by the assay type; conditions: other: pH 6.5, 37° C., aqueous system, Lineweaver-Burk
# [8] = substrate: OC[C@H]1OC(O)[C@H](O)[C@@H](O)[C@@H]1O; assay: purified protein, by the assay type; conditions: other: pH 6.5, 37° C., aqueous system, Lineweaver-Burk at 30, 50, 100, 200 mM
molecule,measurement,setting,value
OC[C@H]1OC(O)[C@H](O)[C@@H](O)[C@@H]1O (stereo partly drawn) [D-glucose],Km,[1],16 mM
same,Km,[2],31 mM
same,Km,"[3]; Lineweaver-Burk at 30, 50, 100, 200 mM, read-out: Michaelis constant (Km) for glucose",14 mM
same,Km,[4],80 mM
same,Km,[5],82 mM
same,Km,[6],14 to 82 mM
OC1OC[C@@H](O)[C@H](O)[C@H]1O (stereo partly drawn) [D-xylose],Km,"[3]; Lineweaver-Burk, read-out: Michaelis constant (Km) for xylose",82 mM
"FADGDH GDH-1, SEQ ID No. 1 (encoded by SEQ ID No. 8 of JP527482B) (Aspergillus oryzae) (protein) MKNTTTYDYIVVGGGTSGLVVANRLSENPDVSVLLLEAGASVFNNPDVTNANGYGLAFGSAIDWQYQSINQSYAGGKQQVLRAGKALGGTSTINGMAYTRAEDVQIDVWQKLGNEGWTWKDLLPYYLKSENLTAPTSSQVAAGAAYNPAVNGKEGPLKVGWSGSLASGNLSVALNRTFQAAGVPWVEDVNGGKMRGFNIYPSTLDVDLNVREDAARAYYFPYDDRKNLHLLENTTANRLFWKNGSAEEAIADGVEITSADGKVTRVHAKKEVIISAGALRSPLILELSGVGNPTILKKNNITPRVDLPTVGENLQDQFNNGMAGEGYGVLAGASTVTYPSISDVFGNETDSIVASLRSQLSDYAAATVKVSNGHMKQEDLERLYQLQFDLIVKDKVPIAEILFHPGGGNAVSSEFWGLLPFARGNIHISSNDPTAPAAINPNYFMFEWDGKSQAGIAKYIRKILRSAPLNKLIAKETKPGLSEIPATAADEKWVEWLKANYRSNFHPVGTAAMMPRSIGGVVDNRLRVYGTSNVRVVDASVLPFQVCGHLVSTLYAVAERASDLIKEDAKSA",Km,[7],39 mM
same,Km,[8],68 mM
